Measurements from patent publication US9453017B2, “Antiviral therapies with phospholipase D inhibitors” (Vanderbilt University, priority 2011, dated 2016).
Read-outs that look alike come from different tables or passages of the source.

Key:
[1] = test system: influenza virus; type: cell-based; details: 10 μM compound; compared to vehicle; FIG. 2
[2] = test system: PR8 influenza A virus; test: In vivo mouse model of influenza infection, 30 mg/kg (FIGS. 3, 4); details: 30 mg/kg intraperitoneal twice daily for 7 days; for survival of infected mice: FIG. 4
Method: A mouse model of influenza infection was used to test the in vivo efficacy of representative disclosed compounds. Compounds were administered at 30 mg/kg and the mice were infected with PR8 influenza A virus. Briefly, C57BL/6J mice (female 8- to 10-wk-old; purchased from The Jackson Laboratory and held under pathogen-free conditions at St. Jude Children's Research Hospital) were used in these studies. Mice were anesthetized by i.p. injection with Avertin (2,2,2-tribromethanol; prepared in-house) before intranasal (i.n.) infection with 80% infective dose (EID80) units of the PR8 influenza A virus in PBS. Mice were administered either the indicated PLD inhibitor (30 mg/kg) or vehicle intraperitoneal starting at 24 hr per exposure. Compounds were administered twice daily for 7 days and subjects were measured for changes in body weight (FIG. 3) or survival (FIG. 4) as a function of PLD inhibitor administration. Mice were sacrificed if moribund.

[3] = test system: phospholipase D (PLD); type: cell-based, human; details: 10 μM; A549 cells infected with California/04/2009 at 1 MOI; 6 hours post-infection; FIG. 6
[4] = test system: A/Brisbane/59/2007 (H1N1); type: cell-based, influenza virus; details: for infected cells, A/Brisbane/59/2007: 10 μM, vs DMSO vehicle
[5] = test system: A/California/04/2009 (H1N1); type: cell-based, influenza virus
[6] = test system: clathrin in A549 cells infected with A/Brisbane/59/07; test: Diffuse infection model, clathrin accumulation (FIG. 8a-b); type: cell-based, human
Method: (§1) A549 cells were seeded onto chamber slides and allowed to adhere overnight. The cells were washed with PBS, and serum-free medium containing treatment was added to the cells. After one hour of treatment, the medium was removed and replaced with serum-free medium containing treatment and 0.05 MOI influenza virus. The infected cultures were kept at 4° C. for 15 minutes before being incubated at 37° C. At appropriate times, cultures were removed and fixed with […] and processed for microscopy as above. Z stacks were acquired using a Zeiss LSM 510 microscope, and images were analyzed with ImageJ (Java-based software available from NIH). Data was processed as above.
(§2) Samples were fixed in 4% formaldehyde, permeabilized with 0.3% Triton X-100, and then exposed to antisera targeting proteins of interest and corresponding fluorescent secondary antibodies alongside DAPI to visualize nuclei. Focal infections were imaged and processed using a Nikon C1Si and NIS Elements software. Confocal images were captured with a Zeiss LSM 510 NLO Meta and analyzed with Zeiss Zen 2011 software and ImageJ.
(§3) (i) Quantitation of the area of positive Mx1 staining, n=4 for DMSO and n=5 for drug treatments. ANOVA and Dunnett's post test were used to determine significance of changes when PLD inhibitors were used, and a t-test was used when cells were treated with alcohol, * p<0.05, ** p<0.01, ***, p<0.001, **** p<0.0001. Data in (b, d, f, i) is mean±SEM, n=3 fields of at least 15 cells.

[7] = test system: RAB5 and CD63 in A549 cells infected with A/California/04/2009; test: Diffuse infection model, RAB5 and CD63 recruitment (FIG. 8c-f); type: cell-based, human
Method: as §1, §2, §3

[8] = test system: A549 cells infected with A/Puerto Rico/8/1934; test: Viral nucleoprotein (NP) / Rab11 trafficking (FIG. 8g); type: cell-based, human; details: 5 μM; A/Puerto Rico/8/1934, MOI=5; 16 hr infection
Text: as §2, §3

[9] = test system: PR8 (A/Puerto Rico/8/1934); test: Lethal influenza infection in mice, JWJ 13 mg/kg (FIG. 9); type: in vivo, mouse
[10] = Pharmacokinetics after intraperitoneal injection in mice (FIG. 15); type: in vivo; details: mouse
Method: The pharmacokinetic behavior of a representative disclosed PLD inhibitor of the present invention was assessed following intraperitoneal administration in a mouse model. Briefly, mice were administered a single dose of the PLD inhibitor VU0364739 (10 mg/kg) by intraperitoneal injection. Tissue (brain, lung, and liver) and plasma samples were isolated following euthanizing animals (N=2 for each time point) at the indicated time points (see FIG. 15). The samples were flash frozen and stored at −80° C. Analysis was carried out by LC-MS/MS following extraction.

[11] = test system: A/Puerto Rico/8/1934; test: Traditional plaque assay in MDCK cells (FIG. 14a); details: 10 μM, vs DMSO treated control
[12] = test system: influenza virus strains; type: cell-based
[13] = 50 minutes post-infection, 0.05 MOI, vs DMSO
[14] = 80 minutes post-infection, 0.05 MOI, vs DMSO
[15] = 10 μM PLD inhibitor, vs DMSO control

Structure (SMILES) | infection of A549 cells [1] | survival of infected mice [2] | protection from A/Brisbane/59/2007 infection [4] | infected cells, A/Brisbane/59/2007 [4] | protection from A/California/04/2009 infection ([5]; 10 μM, […], vs vehicle control) | clathrin accumulation [6, 13] | clathrin accumulation [6, 14] | CD63 accumulation [7, 15] | viral nucleoprotein (NP) trafficking [8] | plaque formation [11] | virus infection of A549 cells [12] | further results
O=C(NCCN1CCC2(CC1)C(=O)NCN2c1cccc(F)c1)c1ccc2ccccc2c1 [No. 1, N-(2-(1-(3-fluorophenyl)-4-oxo-1,3,8-triazaspiro[4.5]decan-8-yl)ethyl)-2-naphthamide] | blocked infection of A549 cells | survival improved | still significantly protected | significantly fewer (p<0.001) infected cells | significant protection | accumulated less clathrin | persisted at least until 80 minutes | significantly less CD63 | trafficking was disrupted | less plaque formation |  | formation of PtdBuOH [3]: inhibited; protection from A/California/04/2009 infection [5]: protected (p<0.05); less likely to die ([9]; 13 mg/kg intraperitoneal, 4000 EID50 PR8, Log-Rank p=0.0061, FIG. 9b): about 27%; mice that survived (of cohort) ([9]; 13 mg/kg intraperitoneal, 4000 EID50 PR8, vehicle one out of 42): 12/38; recovery of weight lost ([9]; 13 mg/kg intraperitoneal, 4000 EID50 PR8, vs vehicle): recovered the weight lost more quickly; weight loss ([9]; 13 mg/kg intraperitoneal, 4000 EID50 PR8, vs vehicle, FIG. 9a): lost significantly less weight; virus in lungs (plaque assay) ([9]; 8 hours after infection, p=0.0017, FIG. 9c): significantly less virus; innate immune response ([9]; 8 hours after infection, vs vehicle): more activated innate immune response; accumulation in liver and lung ([10]; in vivo, ip, 10 mg/kg): elevated accumulation in liver and lung compared to plasma; accumulation in brain ([10]; single dose 10 mg/kg intraperitoneal, 15 min to 3 hr post-administration): appeared to be constant; exposure in tissues (brain, lung, liver) and plasma ([10]; single dose 10 mg/kg intraperitoneal, FIG. 15): sustained exposure in the tissues examined and in plasma over a period of at least three hours
C[C@@H](CN1CCC(n2c(=O)[nH]c3cc(Br)ccc32)CC1)NC(=O)[C@@H]1C[C@@H]1c1ccccc1 [No. 2, (1R,2S)-N-((S)-1-(4-(5-bromo-2-oxo-2,3-dihydro-1H-benzo[d]imidazol-1-yl)piperidin-1-yl)propan-2-yl)-2-phenylcyclopropanecarboxamide] | blocked infection of A549 cells | particularly profound | still significantly protected | significantly fewer (p<0.001) infected cells |  | accumulated less clathrin | persisted at least until 80 minutes | significantly less CD63 | trafficking was disrupted | less plaque formation |  | weight loss associated with virus infection ([2]; vs vehicle (10% Tween 80), through about day 11 post-infection, FIG. 3): trend of the test compound to protect infected mice against weight loss
O=C(NCCN1CCC(n2c(=O)[nH]c3ccccc32)CC1)c1ccc2ccccc2c1 [No. 3, N-(2-(4-(2-oxo-2,3-dihydro-1H-benzo[d]imidazol-1-yl)piperidin-1-yl)ethyl)-2-naphthamide] | blocked infection of A549 cells |  | still significantly protected | significantly fewer (p<0.001) infected cells | significant protection | accumulated less clathrin |  | significantly less CD63 |  |  |  | 
CCCCO [n-butanol, reference compound] |  |  |  |  |  |  |  |  |  |  | has a significant effect on virus infection of A549 cells | protection from productive infection, A/Brisbane/59/2007 [4]: significantly protected from a productive infection; protection from productive infection, A/California/04/2009 [5]: significantly protected from a productive infection; clathrin accumulation ([6]; 0.6% alcohol, 80 minutes after infection, compared to tert-butanol): significantly less clathrin had accumulated; CD63 accumulation ([7]; 0.6% alcohol, vs respective control (tert-butanol)): significantly less CD63
CC(C)(C)O [tert-butanol] |  |  |  |  |  |  |  |  |  |  | does not have any effect on virus infection of A549 cells | 
